Results taken from paper PMC6934184, “Selective DNA-PKcs inhibition extends the therapeutic index of localized radiotherapy and chemotherapy” (The Journal of Clinical Investigation, 2019).

Biological target: T1, STK32B (YANK2) (Homo sapiens, UniProt Q9NY57)
T1 construct: purchased Thermo Fisher Scientific (Life Technologies) SelectScreen
Assay: SelectScreen LanthaScreen
Type: binding
Conditions: read-out: % displacement
Outline: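 NU5455 was profiled across the SelectScreen Broad panel of kinase activity and binding assays. Z'LYTE reactions such as CSF1R ran at apparent Km ATP, while the Adapta CAMK1 assay used ATP listed as 10. Values are given as percent.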

T1 sequence (Q9NY57 whole entry): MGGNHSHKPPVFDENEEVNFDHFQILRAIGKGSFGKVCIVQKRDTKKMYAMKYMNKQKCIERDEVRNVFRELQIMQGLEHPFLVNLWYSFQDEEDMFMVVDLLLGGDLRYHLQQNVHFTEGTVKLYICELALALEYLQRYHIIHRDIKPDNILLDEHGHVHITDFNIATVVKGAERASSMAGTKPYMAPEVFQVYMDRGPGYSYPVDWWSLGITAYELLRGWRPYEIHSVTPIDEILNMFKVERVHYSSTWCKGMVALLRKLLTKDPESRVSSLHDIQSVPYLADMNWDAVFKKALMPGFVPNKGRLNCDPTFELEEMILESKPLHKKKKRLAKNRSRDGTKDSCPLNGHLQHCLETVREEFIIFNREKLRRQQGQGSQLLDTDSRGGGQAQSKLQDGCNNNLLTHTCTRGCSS

In the case of `CN(C(=O)CN1CCOCC1)c1ccc2sc3c(-c4cccc5c(=O)cc(N6CC7CCC(C6)O7)oc45)cccc3c2c1` [NU5455], the inhibition at 1 µM is reported as -1.4%.
